The text below walks through data of ChEMBL document CHEMBL3507680, “University of Dundee, Gates Library screen for HepG2 cell viability”.

The data set is described as follows: Human HepG2 cell viability assay in 384 well format. In kind it is toxicity, cell-based. More on the design: dose 125 nL, time 70.5 hour; cytotoxicity at 70.5 h: concentration not given beside the values. Particulars: HepG2 cells, read-out: Inhibition.

As to `CC(C)Oc1cccc(C(=O)C2CCCN(S(=O)(=O)C(C)C)C2)c1` (stereo unspecified), the cytotoxicity at 70.5 h was -7.26%.
The figure for `O=C(c1ccc(CNC2CCSC2)cc1)N1CCCC1` (stereo unspecified) is -0.303%; for `CCN(C)C[C@@H]1CN(S(=O)(=O)c2cccc(Cl)c2)C[C@@H]1CO` it is 2.35%; for `CCCc1nc(C(=O)N(C)Cc2cc(CC)no2)cs1` it is 0.552%.
The figure for `O=C(c1ncc[nH]1)N1CCC(n2cc(-c3cccc(Cl)c3)nn2)CC1` is 8.61%; for `CNC(=O)[C@@H]1C[C@@H](N)CN1C1CCN(c2ccccc2F)CC1` it is -7.57%.
`Cc1n[nH]c(C)c1-c1cc(-c2ccc[nH]2)nc(N)c1C#N`: the cytotoxicity at 70.5 h is -10.2%.
The figure for `CCC(Nc1nc(C(C)C)nc2c1cnn2C)c1ccncc1` (stereo unspecified) is -7.7%.
As for `Cc1nn(C)c2nc(NCCOCCO)sc12`, the cytotoxicity at 70.5 h is -4.46%.
Regarding `Cc1cccc(N2CCC3(CCCN3Cc3cnn(C)c3C)CC2)n1`, the cytotoxicity at 70.5 h came out at 2.08%.
Regarding `CC(=O)c1c(C)nn(CC(=O)N2CCCC2c2ccc(C(N)=O)s2)c1C` (stereo unspecified), the cytotoxicity at 70.5 h was -2.76%.
The figure for `O=C(O)c1cn(CC2CCCN(c3ccc4ccccc4n3)C2)nn1` (stereo unspecified) is -10.4%; for `COC(=O)CCC(=O)N1CCc2[nH]nc(-c3ccc4c(c3)OCO4)c2C1` it is -3.99%.
With `CN(C)C(C(=O)N1CCCC1)c1ccccc1F` (stereo unspecified) the figure was -1.96%.
The figure for `CCn1c(CN(C)C)nnc1C1CCN(Cc2ccccc2)CC1` is -10.3%; for `O=C1[C@H]2CC[C@H](CN(S(=O)(=O)c3ccccc3)C2)N1Cc1cscn1` it is 8.27%.
For `CC(C)Oc1cc(N2CCC(N3CCC(O)CC3)CC2)nc(N)n1`, the cytotoxicity at 70.5 h was -7.04%.
As for `Cc1ccc(C(NC(=O)CC2CCN(C(C)C)CC2)C(=O)O)cc1` (stereo unspecified), the cytotoxicity at 70.5 h was -3.16%.
In the case of `Cc1nn(C)cc1CNC(=O)c1cn(CCC2CCCCN2)nn1` (stereo unspecified), the cytotoxicity at 70.5 h was -8.92%.
With `Cc1ncsc1CCC(=O)N1CCCC[C@H](N(C)C)C1` the figure was 16.9%.
The figure for `NC(=O)c1cccc(CC2CCN(C(=O)CO)C2)c1` (stereo unspecified) is -3%.
Turning to `CCCNC(=O)N1CCC(Oc2cc(C)ccc2F)(C(=O)O)CC1`, the cytotoxicity at 70.5 h is 10.3%.
`CCCN1CCCn2nc(CNC(=O)CCc3scnc3C)cc2C1`: the cytotoxicity at 70.5 h was -1.73%.
For the compound `O=C1CCC2(CCN(Cc3cc(F)ccc3Cl)CC2)CN1C1CCCC1`, the cytotoxicity at 70.5 h amounted to 3.22%.
The figure for `COCCN1CCN(C(=O)c2cc(C(C)C)on2)[C@H]2CS(=O)(=O)C[C@H]21` is 2.11%; for `CCNC(=O)[C@@H]1C[C@@H](NC(=O)Cc2ccncc2)CN1Cc1ccsc1` it is -1.57%; for `Cc1cc(C[C@@H]2COC[C@@H]2NC(=O)CN2CCCC2)on1` it is -0.566%.
As for `C[C@@H]1CN(C2(C(=O)N3CCCCCC3)Cc3ccccc3C2)C[C@H](C)O1`, the cytotoxicity at 70.5 h is -7.47%.
The figure for `O=C(NC1CC(=O)N(Cc2cccc(F)c2)C1)c1ccncc1` (stereo unspecified) is -8.7%; for `COCCN1CCC(CN(CC2CCCO2)C(=O)CCNC(C)=O)CC1` (stereo unspecified) it is -3.63%; for `NC(=O)NCCC(=O)NCc1cccnc1N1CCc2ccccc2C1` it is -11.6%.
The figure for `COc1cc(N2CCCC(c3nccn3Cc3cscn3)C2)nc(N)n1` (stereo unspecified) is -8.38%; for `CC(C)CCN1CCNC(=O)C1CC(=O)N1CCc2sccc2C1` (stereo unspecified) it is -7.67%.
As to `CCCn1c(C)c(CC(=O)N(C)CCOC)c2c1CC(C)(C)CC2=O`, the cytotoxicity at 70.5 h is -7.09%.
For `COCCN(C)CCN1CC2(CCN(C(=O)C3CCOC3)CC2)OC1=O` (stereo unspecified), the cytotoxicity at 70.5 h was 17.4%.
Regarding `CC(C)Nc1ncc(CN2C[C@@H](CN3CCC(O)CC3)[C@@H](CO)C2)cn1`, the cytotoxicity at 70.5 h is -3.95%.
With `COc1ccc(-c2nc(CN3CCOCS3(=O)=O)c(C)o2)cc1` the figure was -0.0234%; with `Cc1nnc(SCC(=O)N2CCC3(CC2)c2ccccc2CC3O)o1` (stereo unspecified), 20.7%.
The figure for `CC(C)c1noc(CN2CCC3(CCCO3)CCC2=O)n1` (stereo unspecified) is -0.624%.
With `CCSCCNC(=O)C(c1cccc(F)c1)N(C)C` (stereo unspecified) the figure was -6.8%; with `CCC(=O)N1CCc2[nH]cnc2C12CCN(C(=O)c1snnc1C)CC2`, -10.6%.
As for `Oc1cc(CCC2CCCCN2)cc(-c2ccncc2)c1` (stereo unspecified), the cytotoxicity at 70.5 h was 17.4%.
The figure for `CC(C)n1ccnc1C1CCCN(c2ccccn2)C1` (stereo unspecified) is -11.1%; for `CN(Cc1ncc[nH]1)S(=O)(=O)c1cccc(C(=O)N2CCOCC2)c1` it is -2.7%; for `COc1cccc(C(=O)N2CCCC(C(=O)CCc3ccccc3)C2)c1` (stereo unspecified) it is -0.206%.
For `N#Cc1cccnc1N1CCC2(CCCN(C3CCOCC3)C2=O)C1` (stereo unspecified), the cytotoxicity at 70.5 h is -3.03%.
With `CCNC(=O)c1ccc(N2CCCC(c3nccn3C(C)C)C2)nc1` (stereo unspecified) the figure was -10.3%; with `c1ncn(CC2CCCCN2Cc2cn3ccsc3n2)n1` (stereo unspecified), 5.43%; with `CC(C)(C)c1cc(C(=O)NCCN2CCCS2(=O)=O)[nH]n1`, -14.3%.
Consider `Cc1cccc(C(CNC(=O)NCc2cc[nH]n2)N2CCOCC2)c1` (stereo unspecified), for which the cytotoxicity at 70.5 h is -14.8%.
With `CC(C)Cc1cc(C(=O)NCCN2CCCS2(=O)=O)[nH]n1` the figure was -10.6%.
Turning to `NC(=O)C(NCc1nn(-c2ccccc2)c2c1CCC2)c1ccccc1` (stereo unspecified), the cytotoxicity at 70.5 h was -10.6%.
The figure for `Cc1cc(CN2CCCCC2Cn2cncn2)no1` (stereo unspecified) is -12.8%; for `CC(C)c1nc2c(n1C)CCN(Cc1cccc(C(N)=O)c1)C2` it is -13.9%.
With `CCn1ccnc1CN1CCN(CC(O)c2ccco2)CC1` (stereo unspecified) the figure was -5.46%; with `Cc1cc(CN2CCCC2Cn2cccn2)no1` (stereo unspecified), -10.2%.
As to `Cc1cnn(CC2CCCCN2Cc2c(C)noc2C)c1` (stereo unspecified), the cytotoxicity at 70.5 h was -14.5%.
With `CCn1nc2c(cc1=O)CN(Cc1nc(-c3ccco3)no1)CC2` the figure was -10.1%; with `O=C(NCc1nn(-c2ccccc2)c2c1CCC2)NCC1COCCO1` (stereo unspecified), -9.01%; with `CC(C)C(CNC(=O)NCc1cc[nH]n1)N1CCOCC1` (stereo unspecified), -5.25%.
As for `CC(O)CN1CCC(CNCc2ccc(OC(F)(F)F)cc2)CC1` (stereo unspecified), the cytotoxicity at 70.5 h came out at 5.04%.
As to `COc1cccc(CNCC2CCN(CC(C)O)CC2)c1OC` (stereo unspecified), the cytotoxicity at 70.5 h is -5.57%.
In the case of `COc1cc(C)nc(N2CCN(C(=O)COC3CCCC3)CC2)n1`, the cytotoxicity at 70.5 h was -4.07%.
The figure for `Cc1ccsc1CNC(=O)N1CCC(Cc2cnn(C)c2)C1` (stereo unspecified) is -3.88%.
The figure for `CCc1nccn1C1CCCN(C(=O)COCC(F)(F)F)C1` (stereo unspecified) is -1.33%.
With `Cc1cnn(CC2CCCCN2Cc2cnc(C)s2)c1` (stereo unspecified) the figure was -12.5%.
For `CCCn1nc2c(cc1=O)CN(Cc1nc(-c3ccco3)no1)CC2`, the cytotoxicity at 70.5 h was -1.15%.
The figure for `CC(Oc1ccccc1)C(=O)N1CCCN(Cc2cscn2)CC1` (stereo unspecified) is 6.19%; for `CSCC(=O)N1CCCN(Cc2cscn2)CC1` it is -2.64%.
Regarding `COCCN1CCCC1Cn1nc(C)cc1C` (stereo unspecified), the cytotoxicity at 70.5 h stood at 8.46%.
Take `CCc1ccc(C(=O)NCc2ccnc(N3CCN(C)CC3)c2)o1`: the cytotoxicity at 70.5 h was -7.44%.
